Common to all, as to format: cell-based
In experiment [1] the test system is cyclin D1, cyclin E and p27 in MCF-7 cells. In words: Cell cycle protein levels by Western analysis (cyclin D1, cyclin E, p27). As to conditions: 1400 W 10 μM or mevalonate 20 μM. The procedure:
A (Table): The cell cycle distribution of MCF-7 cells treated with either simvastatin or fluvastatin (5-10 μM) for 40 h in the presence or 1400 W (10 μM) or mevalonate (20 μM). The cell sorting was performed by flow cytometry as described in “Materials and Methods.” B: Cells were treated with simvastatin or fluvastatin (10 μM) in the presence or absence of 1400 W (10 μM) or mevalonate (20 μM) for 40 h and cyclins D1 and E protein levels were measured by the Western analysis using the corresponding polyclonal or monoclonal antibodies. Data are representative of three separate experiments.
After treatment with statins, cells were washed with ice-cold DPBS and resuspended in 150 μl of radioimmune precipitation assay buffer (20 mM Tris-HCl, pH 7.4, 2.5 mM EDTA, 1% Triton X-100, 1% sodium deoxycholate, 1% SDS, 100 mM NaCl, 100 mM sodium fluoride) containing 1 mM sodium vanadate, 10 μg/ml aprotinin, 10 μg/ml leupeptin, and 10 μg/ml pepstatin inhibitors. Cells were homogenized by passing the suspension through a 25-gauge needle (20 strokes). The lysate was centrifuged at 750×g for 10 min at 4° C. to pellet out the nuclei. The remaining supernatant was centrifuged for 30 min at 12,000×g. Protein was determined using the Lowry method and 50 μg of the lysate was used for the Western blot analysis. […] The band was detected using the ECL method (Amersham Biosciences).

The test system of experiment [2] is MCF-7 cells. In words: Apoptosis by TUNEL assay. Conditions: with simvastatin or fluvastatin 5-10 μM, 48 h; 1400 W 10 μM, sepiapterin 50 μM, mevalonate 20 μM. The source says:
Measurement of Apoptosis by TUNEL Assay:
The terminal deoxynucleotidyl transferase-mediated nick-end labeling (TUNEL) assay was used for microscopic detection of apoptosis (Kotamraju S, et al. J Biol Chem, 277:17179-87, 2002). This assay is based on labeling of 3′ free hydroxyl ends of the fragmented DNA with fluorescein-dUTP catalyzed by terminal deoxynucleotidyl transferase. Procedures were followed according to a commercially available kit (ApoAlert) from Clontech. […] The apoptotic cells were detected by fluorescence microscopy equipped with rhodamine and FITC filters. The quantification of apoptosis was performed using the Metamorph image analysis package.
Under these conditions, NO2^−/NO3^− levels were decreased (FIG. 4B). […] Further verification that iNOS is involved in […] NO was obtained from inhibition of geranylgeranylation and farnesylation. […] In contrast, FTI-277 (farnesylation inhibitor) and sepiapterin had no effect on NO2^−/NO3^− levels (FIG. 4C). […] In the TUNEL assay, cells were treated with simvastatin or fluvastatin (5-10 μM) for 48 h in the presence or absence of 1400 W (10 μM), sepiapterin (50 μM) or mevalonate (20 μM) and stained for TUNEL-positive cells as an index of DNA fragmentation monitored by fluorescence microscopy (original magnification, ×100). Photographs were taken for the overlaid images of propidium iodide-and FITC-stained cells (TUNEL-positive cells). Yellow and red denote apoptotic and nonapoptotic cells, respectively. We observed that the TUNEL positive staining was enhanced in statin-treated MCF-7 cells. […] Pretreatment with 1400 W or mevalonate caused a decrease in the TUNEL positive cells.

Experiment [3] has as its system MCF-7 cells. The experiment is described as follows: Soft agar assay for colony formation (anchorage-independent growth). Conditions: 1400 W 10 μM or mevalonate 20 μM with statin 10 μM. The procedure: Soft Agar Assay for Colony Formation:
After cells were treated with various conditions, they were seeded in six-well plates. The plates were first covered with phenol red-free MEM containing 0.6% agar and 10% FBS. The middle layer contained cells (5×10^3) in phenol red-free MEM with 0.35% agar and 10% FBS. The top layer, consisting of the medium, was added to prevent drying of the agar in the plates. The plates were incubated for 21 days, after which the plates were stained in 0.5 ml of 0.005% crystal violet for 1 h and the cultures were inspected and photographed. The colony efficiency (CE) was determined by a count of the number of colonies greater than […] in diameter, which was calculated as the average of colonies counted at 50× magnification in five individual fields manually (Liu S, et al. Oncogene, 23:1256-62, 2004).
The long-term effects of statins and the inhibitors on the proliferation and survival of MCF-7 cells were determined using clonogenic assays (Ramanathan B, et al. Cancer Res, 65:8455-60, 2005). The extent of malignancy of cells corresponds to the attainment of anchorage-independent growth (Liu S, et al. Oncogene, 23:1256-62, 2004). MCF-7 cells were treated with simvastatin or fluvastatin in the presence or absence of either 1400 W or mevalonate or sepiapterin. In separate experiments, cells were treated with either GGTI-298 or FTI-277. At the end of the treatments, approximately 5×10^3 cells were seeded onto a soft agar to determine their clonogenic efficiency after 21 days. […] In the presence of either 1400 W or mevalonate, the colony formation was restored in statin-treated cells (FIG. 6B).

Experiment [4] has as its system iNOS in MCF-7 cells. The experiment is described as follows: iNOS mRNA (RT-PCR) and protein (Western) levels. Conditions: mevalonate 20 μM. The procedure: After treatment with statins, cells were washed with ice-cold DPBS and resuspended in 150 μl of radioimmune precipitation assay buffer (20 mM Tris-HCl, pH 7.4, 2.5 mM EDTA, 1% Triton X-100, 1% sodium deoxycholate, 1% SDS, 100 mM NaCl, 100 mM sodium fluoride) containing 1 mM sodium vanadate, 10 μg/ml aprotinin, 10 μg/ml leupeptin, and 10 μg/ml pepstatin inhibitors. Cells were homogenized by passing the suspension through a 25-gauge needle (20 strokes). The lysate was centrifuged at 750×g for 10 min at 4° C. to pellet out the nuclei. The remaining supernatant was centrifuged for 30 min at 12,000×g. Protein was determined using the Lowry method and 50 μg of the lysate was used for the Western blot analysis. Proteins were resolved using the SDS-polyacrylamide gels and blotted onto nitrocellulose membranes. Membranes were washed with TBS (140 mM NaCl, 50 mM Tris-HCl, pH 7.2) containing 0.1% Tween 20 (TBST) and 5% skim milk to block the non-specific protein binding. Membranes were incubated with 1 μg/ml rabbit anti-iNOS polyclonal antibody (Abeam, Cambridge, Mass.), mouse anti-cyclin D1 antibody, mouse anti-cyclin E antibody (BD Biosciences, San Jose, Calif.) or rabbit anti-p27 antibody (Chemicon International, Temecula, Calif.) in TBST for overnight at 4° C., washed 5 times with TBST, and then incubated with goat anti-rabbit or rabbit anti-mouse IgG-horseradish peroxidase-conjugated secondary antibody (1:5,000) for 1.5 h at room temperature. The band was detected using the ECL method (Amersham Biosciences).
Following the treatments, medium was aspirated and 1 ml of TRIzol reagent (Invitrogen) was added and total RNA was extracted using the manufacturer's protocol. Five μg of RNA was used for the first strand cDNA synthesis using a first strand cDNA synthesis kit (Amersham Biosciences). […]

The values below come from US20070219208A1, “Methods for Treating Cancer” (priority 2006, published 2007).

The structures appear in SMILES notation.

Regarding `CC(O)(CCO)CC(=O)O` (stereo not shown) [mevalonate], the “effect on statin-induced decrease of cyclin D1 and cyclin E” value in experiment [1] is “restored in part”. In experiment [2], the “effect on statin-induced TUNEL-positive cells (proapoptotic effect)” value is listed as “decrease”. Further, in experiment [3], the “colony formation in statin-treated cells in the presence of modulator” value is given as “restored”. Further, the “effect on statin-induced iNOS” value in experiment [4] is listed as “inhibited”.
